Test results taken from ChEMBL document CHEMBL1201862, “PubChem BioAssay data set” (2004).
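Results reflect a 48-hour exposure of cells in 96-well plates to compound at five concentrations. GI50: concentration for 50% inhibition of growth.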 Activity calls are given as the source filed them. Rule as the data show it: active = GI50 up to about 1.1 µM and inactive = higher.

Experiments:
Test in all cases: growth of human tumour cells (NCI), 48 h
[1] = tested on: CAKI-1
[2] = tested on: SR
[3] = tested on: HCC 2998
[4] = tested on: HCT-15
[5] = tested on: PC-3
[6] = tested on: NCI-H460
[7] = tested on: CCRF-CEM
[8] = tested on: NCI/ADR-RES
[9] = tested on: NCI-H226
[10] = tested on: MOLT-4
[11] = tested on: SNB-19
[12] = tested on: SK-MEL-2
[13] = tested on: RXF 393
[14] = tested on: EKVX
[15] = tested on: SK-MEL-5
[16] = tested on: A549
[17] = tested on: NCI-H23
[18] = tested on: A498
[19] = tested on: HT-29
[20] = tested on: Malme-3M

Row | SMILES | GI50 [1] | GI50 [2] | GI50 [3] | GI50 [4] [µM] | GI50 [5] | GI50 [6] | GI50 [7] | GI50 [8] | GI50 [9] | GI50 [10] | GI50 [11] | GI50 [12] | GI50 [13] | GI50 [14] | GI50 [15] | GI50 [16] | GI50 [17] | GI50 [18] | GI50 [19] | GI50 [20]
1 | C=C1C[C@@H]2CC[C@@]34CC5O[C@H]6C(O[C@H]7CC[C@H](CC(=O)O[C@@H]8[C@@H](C)[C@@H]9O[C@@H]%10C[C@]%11(C[C@@H]%12O[C@]%13(C[C@H](C)[C@@H]%14O[C@@H]%15CC(C(COC(C)=O)OC(C)=O)O[C@@H]%15C[C@@H]%14O%13)C[C@H](C)[C@@H]%12O%11)O[C@@H]%10C[C@@H]9O[C@H]8CC8O[C@@H](CC[C@@H]1O2)C[C@@H](C)C8(O)CO)O[C@@H]7[C@@H]6O3)[C@H]5O4 (stereo partly drawn) | 0.652 µM (active) | 0.117 µM (active) | 0.00489 µM (active) | 0.527 | 0.399 µM (active) | 0.258 µM (active) | 0.995 µM (active) | > 1 µM (active) | 0.45 µM (active) | > 0.548 µM (active) | 0.701 µM (active) | 0.721 µM (active) | 0.0359 µM (active) | > 0.923 µM (active) | 0.243 µM (active) | 0.413 µM (active) | 0.264 µM (active) | > 0.597 µM (active) |  | 
2 | Cc1ccc(/C=N/n2c(Cc3ccccc3)n[nH]c2=O)cc1 | 28.6 µM (inactive) | > 100 µM (inactive) | > 100 µM (inactive) | > 100 | > 100 µM (inactive) | > 100 µM (inactive) | > 100 µM (inactive) | > 100 µM (inactive) | > 100 µM (inactive) | > 100 µM (inactive) | > 100 µM (inactive) |  | > 100 µM (inactive) | > 100 µM (inactive) | > 100 µM (inactive) | > 100 µM (inactive) | > 100 µM (inactive) | > 100 µM (inactive) | > 100 µM (inactive) | > 100 µM (inactive)
3 | O=c1c2cc([N+](=O)[O-])ccc2nc2n1CCCCC2 | 79.6 µM (inactive) | > 100 µM (inactive) |  | > 100 | 89.3 µM (inactive) | > 100 µM (inactive) | 21.5 µM (inactive) | > 100 µM (inactive) | > 100 µM (inactive) | > 100 µM (inactive) |  | > 100 µM (inactive) | > 100 µM (inactive) | 66.4 µM (inactive) | > 100 µM (inactive) | > 100 µM (inactive) | > 100 µM (inactive) | 87.9 µM (inactive) | > 100 µM (inactive) | > 100 µM (inactive)
4 | CC(C)(C)OC(=O)N1CCC(NC(=O)NC2CCN(C(=O)OC(C)(C)C)CC2)CC1 | > 100 µM (inactive) | > 100 µM (inactive) | > 100 µM (inactive) | > 100 | > 100 µM (inactive) | > 100 µM (inactive) | > 100 µM (inactive) | > 100 µM (inactive) |  |  | > 100 µM (inactive) | > 100 µM (inactive) |  | > 100 µM (inactive) |  | > 100 µM (inactive) | > 100 µM (inactive) | > 100 µM (inactive) | > 100 µM (inactive) | > 100 µM (inactive)
5 | Cc1ccc(-c2cc(=O)c(=O)[nH][nH]2)cc1 | > 100 µM (inactive) | > 100 µM (inactive) | > 100 µM (inactive) | > 100 | > 100 µM (inactive) | > 100 µM (inactive) | > 100 µM (inactive) | > 100 µM (inactive) | > 100 µM (inactive) | > 100 µM (inactive) |  | > 100 µM (inactive) | > 100 µM (inactive) | > 100 µM (inactive) | > 100 µM (inactive) | > 100 µM (inactive) | > 100 µM (inactive) | > 100 µM (inactive) | > 100 µM (inactive) | 
6 | C/C(=N/O)c1cccc(Nc2nc3ccccc3c3[nH]c4ccccc4c23)c1 | 2.75 µM (inactive) | 1.15 µM (inactive) |  | 2.36 | 2.93 µM (inactive) | 1.64 µM (inactive) | 2.39 µM (inactive) | 2.99 µM (inactive) | 4.8 µM (inactive) | 0.879 µM (active) | 4.08 µM (inactive) | 2.25 µM (inactive) | 1.89 µM (inactive) | 2.29 µM (inactive) | 1.63 µM (inactive) | 2.22 µM (inactive) | 3.08 µM (inactive) |  | 1.57 µM (inactive) | 3.92 µM (inactive)
7 | Cc1ccc(/C=C/C(=O)c2cc(CN(C)C)c(O)c(CN(C)C)c2)cc1 | 20.7 µM (inactive) | 18.2 µM (inactive) | 18.5 µM (inactive) | 14.4 | 13.5 µM (inactive) | 12 µM (inactive) | 14.4 µM (inactive) | 25.4 µM (inactive) | 22.5 µM (inactive) | 16 µM (inactive) |  |  | 18.7 µM (inactive) | 25.7 µM (inactive) | 14.7 µM (inactive) | 18.8 µM (inactive) | 29 µM (inactive) | 25.2 µM (inactive) | 13.7 µM (inactive) | 18.3 µM (inactive)
8 | COc1cc(C2c3cc4c(cc3[C@@H](Nc3ccc(F)cc3)C3COC[C@H]23)OCO4)cc(OC)c1O (stereo partly drawn) |  | 0.543 µM (active) | 6.85 µM (inactive) | 2.48 | 3.26 µM (inactive) | 0.152 µM (active) | 0.622 µM (active) | 6.92 µM (inactive) |  | 0.118 µM (active) | 0.885 µM (active) |  |  | 9.91 µM (inactive) | 3.43 µM (inactive) | 0.451 µM (active) |  |  | 3.44 µM (inactive) | 
9 | COC(=O)C1CCC(=O)N1C(c1ccc(OC)cc1)c1ccc2c(c1)OCO2 (stereo not drawn) | 62.8 µM (inactive) | 31 µM (inactive) | 28.7 µM (inactive) | 32.3 | 45.3 µM (inactive) | 40.4 µM (inactive) | 43.1 µM (inactive) | 33.3 µM (inactive) | 67.3 µM (inactive) | 36.3 µM (inactive) | 37.2 µM (inactive) | 43.7 µM (inactive) |  | > 100 µM (inactive) | 24.7 µM (inactive) | 47.5 µM (inactive) | 82.8 µM (inactive) | 58.6 µM (inactive) | 34.9 µM (inactive) | 45.5 µM (inactive)
10 | O=C1NC2NC3NC(=O)NC3NC2N1 (stereo not drawn) | > 100 µM (inactive) | > 100 µM (inactive) |  |  | > 100 µM (inactive) |  | > 100 µM (inactive) | > 100 µM (inactive) | > 100 µM (inactive) | > 100 µM (inactive) | > 100 µM (inactive) | > 100 µM (inactive) | > 100 µM (inactive) | > 100 µM (inactive) | > 100 µM (inactive) | > 100 µM (inactive) | > 100 µM (inactive) | > 100 µM (inactive) | > 100 µM (inactive) | > 100 µM (inactive)
11 | O=C1/C(=C/c2ccc(Cl)cc2)Sc2scc(-c3cccc([N+](=O)[O-])c3)[n+]21 | 3.01 µM (inactive) | 0.296 µM (active) | 2.8 µM (inactive) | 1.9 | 7.5 µM (inactive) | 4.53 µM (inactive) | 0.259 µM (active) | 2.37 µM (inactive) | 29.8 µM (inactive) | 2.04 µM (inactive) | 15.6 µM (inactive) | 12.9 µM (inactive) | 2.42 µM (inactive) | 4.18 µM (inactive) | 2.61 µM (inactive) | 13.6 µM (inactive) | 4.95 µM (inactive) |  | 5.65 µM (inactive) | 
12 | Cn1c2ccccc2c2c3c(c4c5ccccc5n(C)c4c21)C(=O)c1ccccc1C3=O | 33.9 µM (inactive) | 18.7 µM (inactive) | 96.8 µM (inactive) | > 100 | 45.8 µM (inactive) | 64.1 µM (inactive) | > 100 µM (inactive) | 61.1 µM (inactive) | > 100 µM (inactive) | > 100 µM (inactive) | 22.8 µM (inactive) | 40.3 µM (inactive) | 16.3 µM (inactive) | 44.9 µM (inactive) | 56 µM (inactive) | 59.4 µM (inactive) | 18.6 µM (inactive) |  | > 100 µM (inactive) | 29.5 µM (inactive)
13 | C=C(CBr)CCCOCc1ccccc1 | 5.6 µM (inactive) | 31.3 µM (inactive) |  | 22 | 19.7 µM (inactive) | 18.1 µM (inactive) | 26.1 µM (inactive) | 20.2 µM (inactive) | 15.5 µM (inactive) | 30.8 µM (inactive) | 15.6 µM (inactive) | 18.6 µM (inactive) |  | 22.9 µM (inactive) | 20.5 µM (inactive) | 38.4 µM (inactive) | 13.9 µM (inactive) | 35.2 µM (inactive) | 21.2 µM (inactive) | 20.7 µM (inactive)
14 | O=c1oc2ccc([N+](=O)[O-])cc2cc1-c1csc(-c2ccccc2)n1 | > 100 µM (inactive) | > 100 µM (inactive) | > 100 µM (inactive) | > 100 | > 100 µM (inactive) | > 100 µM (inactive) | > 100 µM (inactive) | > 100 µM (inactive) | > 100 µM (inactive) | > 100 µM (inactive) | > 100 µM (inactive) | > 100 µM (inactive) | > 100 µM (inactive) | > 100 µM (inactive) | > 100 µM (inactive) | > 100 µM (inactive) |  |  | > 100 µM (inactive) | 32.6 µM (inactive)
15 | CC[C@@H]1ON(C)[C@H]2CN(C)C(=O)[C@@H]12 | > 100 µM (inactive) | > 100 µM (inactive) | > 100 µM (inactive) | > 100 | > 100 µM (inactive) | > 100 µM (inactive) | > 100 µM (inactive) | > 100 µM (inactive) | > 100 µM (inactive) | > 100 µM (inactive) | > 100 µM (inactive) | > 100 µM (inactive) |  |  | > 100 µM (inactive) | > 100 µM (inactive) | > 100 µM (inactive) |  | > 100 µM (inactive) | 
16 | CC(C)(C)[Si](C)(C)OC1(CCc2ccccc2OS(=O)(=O)C(F)(F)F)CCCC=C1COCc1ccccc1 (stereo not drawn) | > 100 µM (inactive) | 1.86 µM (inactive) |  | 12.5 | 3.51 µM (inactive) |  | 5.19 µM (inactive) | > 100 µM (inactive) | 46.1 µM (inactive) | 5.14 µM (inactive) |  | 4.59 µM (inactive) | 48.2 µM (inactive) | > 100 µM (inactive) |  | 0.325 µM (active) | 9.62 µM (inactive) | 66.4 µM (inactive) |  | 0.202 µM (active)
